# Reference: publication PMC2651670 (Biochemistry, 2009)
# Key:
# [1] = biological target: subcomplex Iλ (Bos taurus, UniProt P25708); experiment: NADH:Q1 oxidoreduction; type: biochemical; settings: 100 μM NADH, 0.4 mg/mL asolectin, with or without 2.3 μM rotenone, pH 7.55, 32 °C; flavin site
# [2] = biological target: complex I (NADH:ubiquinone oxidoreductase), hydrophobic (physiological) Q-site (Bos taurus, UniProt P03887+P17694+P42026); experiment: NADH:DQ oxidoreduction, NADH absorbance; type: biochemical
# Sequence of complex I (NADH:ubiquinone oxidoreductase), hydrophobic (physiological) Q-site (P03887 whole entry): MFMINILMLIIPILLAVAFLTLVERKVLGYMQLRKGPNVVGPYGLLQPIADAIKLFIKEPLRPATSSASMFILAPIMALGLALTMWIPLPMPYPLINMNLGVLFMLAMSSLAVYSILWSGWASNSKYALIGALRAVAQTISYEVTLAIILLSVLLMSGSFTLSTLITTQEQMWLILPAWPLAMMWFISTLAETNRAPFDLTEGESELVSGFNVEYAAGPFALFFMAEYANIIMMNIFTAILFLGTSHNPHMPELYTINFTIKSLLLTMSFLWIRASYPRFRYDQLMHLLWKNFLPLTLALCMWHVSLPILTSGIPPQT
# Sequence of complex I (NADH:ubiquinone oxidoreductase), hydrophobic (physiological) Q-site (P17694 34-463): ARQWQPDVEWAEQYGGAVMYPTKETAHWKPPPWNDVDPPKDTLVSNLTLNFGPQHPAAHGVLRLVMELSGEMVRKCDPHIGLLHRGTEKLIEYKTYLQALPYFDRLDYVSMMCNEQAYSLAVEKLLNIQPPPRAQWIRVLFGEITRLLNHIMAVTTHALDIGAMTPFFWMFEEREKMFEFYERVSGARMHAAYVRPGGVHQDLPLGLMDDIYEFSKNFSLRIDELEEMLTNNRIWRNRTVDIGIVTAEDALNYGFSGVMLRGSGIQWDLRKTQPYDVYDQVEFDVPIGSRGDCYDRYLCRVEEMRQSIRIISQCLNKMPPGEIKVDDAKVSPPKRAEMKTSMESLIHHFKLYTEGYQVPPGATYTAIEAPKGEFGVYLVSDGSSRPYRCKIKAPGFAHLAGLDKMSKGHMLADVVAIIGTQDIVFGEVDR
# Sequence of complex I (NADH:ubiquinone oxidoreductase), hydrophobic (physiological) Q-site (P42026 38-216): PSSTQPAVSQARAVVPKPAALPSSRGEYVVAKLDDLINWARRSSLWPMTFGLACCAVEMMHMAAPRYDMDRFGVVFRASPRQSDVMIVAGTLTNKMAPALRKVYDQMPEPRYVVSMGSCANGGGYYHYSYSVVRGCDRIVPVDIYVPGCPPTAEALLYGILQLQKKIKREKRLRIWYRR
# Sequence of subcomplex Iλ (P04394 33-249): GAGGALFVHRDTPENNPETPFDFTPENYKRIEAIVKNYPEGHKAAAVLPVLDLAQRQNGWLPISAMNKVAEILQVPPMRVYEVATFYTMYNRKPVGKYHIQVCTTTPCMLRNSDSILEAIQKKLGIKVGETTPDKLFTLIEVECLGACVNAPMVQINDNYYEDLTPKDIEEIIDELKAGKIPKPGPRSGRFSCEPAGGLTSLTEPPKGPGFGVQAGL
# Sequence of subcomplex Iλ (P25708 21-464): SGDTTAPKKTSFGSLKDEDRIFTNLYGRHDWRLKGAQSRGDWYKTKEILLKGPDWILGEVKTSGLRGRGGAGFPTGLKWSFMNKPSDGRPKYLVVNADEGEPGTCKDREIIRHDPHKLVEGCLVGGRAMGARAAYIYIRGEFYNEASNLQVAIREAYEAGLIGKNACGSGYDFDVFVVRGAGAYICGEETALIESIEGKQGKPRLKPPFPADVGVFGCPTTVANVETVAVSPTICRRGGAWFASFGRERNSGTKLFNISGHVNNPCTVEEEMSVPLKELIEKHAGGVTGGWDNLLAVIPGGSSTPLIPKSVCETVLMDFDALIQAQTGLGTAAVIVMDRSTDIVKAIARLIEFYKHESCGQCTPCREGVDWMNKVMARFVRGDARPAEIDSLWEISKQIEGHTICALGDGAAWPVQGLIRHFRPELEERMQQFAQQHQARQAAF
# Sequence of subcomplex Iλ (P15690 24-727, further chain): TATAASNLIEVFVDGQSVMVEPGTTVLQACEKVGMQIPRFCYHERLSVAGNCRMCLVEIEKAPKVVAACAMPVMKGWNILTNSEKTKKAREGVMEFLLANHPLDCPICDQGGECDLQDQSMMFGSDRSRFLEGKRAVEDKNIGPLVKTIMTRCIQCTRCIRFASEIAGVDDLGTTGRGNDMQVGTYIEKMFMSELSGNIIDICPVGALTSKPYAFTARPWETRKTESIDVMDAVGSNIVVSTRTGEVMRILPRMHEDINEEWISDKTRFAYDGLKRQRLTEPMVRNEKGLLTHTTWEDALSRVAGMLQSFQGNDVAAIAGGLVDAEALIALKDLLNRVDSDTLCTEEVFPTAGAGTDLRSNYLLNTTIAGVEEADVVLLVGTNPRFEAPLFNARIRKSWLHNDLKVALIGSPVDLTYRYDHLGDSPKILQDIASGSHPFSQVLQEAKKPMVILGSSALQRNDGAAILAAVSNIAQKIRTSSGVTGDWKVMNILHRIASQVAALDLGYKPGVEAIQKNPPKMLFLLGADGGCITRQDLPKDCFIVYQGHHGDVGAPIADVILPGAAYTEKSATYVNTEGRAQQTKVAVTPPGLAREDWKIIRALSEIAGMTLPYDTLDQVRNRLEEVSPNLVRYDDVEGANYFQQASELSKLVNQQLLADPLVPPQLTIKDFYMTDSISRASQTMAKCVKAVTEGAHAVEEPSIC
smiles,measurement,setting,value
COC1=C(OC)C(=O)C(CC=C(C)C)=C(C)C1=O [Q1],NADH:Q1 oxidoreduction,[1],Q1 reduction by subcomplex Iλ is independent of the presence of rotenone
C/C=C(\C)[C@H](O)[C@H](C)/C=C(C)/C=C/C/C(C)=C/Cc1nc(OC)c(OC)c(O)c1C [piericidin A],inhibition at 1 µM,[2]; read-out: % inhibition at 1 μM,~95%
C=C(C)[C@H]1Cc2c(ccc3c2O[C@@H]2COc4cc(OC)c(OC)cc4[C@@H]2C3=O)O1 [rotenone],inhibition at 2.3 µM,[2]; read-out: % inhibition at 2.3 μM,~95%
